Assay results from ChEMBL document CHEMBL5390322, “Discovery of 5-Azaquinoxaline Derivatives as Potent and Orally Bioavailable Allosteric SHP2 Inhibitors” (ACS Med Chem Lett, 2023).
pIC50: −log10 of the molar value. Converted amounts (≈) assume the structure as drawn.

What was measured:
[1] = target: T1, Tyrosine-protein phosphatase non-receptor type 11 (Homo sapiens, UniProt Q06124); assay: Allosteric inhibition of recombinant full length 6His-tagged SHP2 (2 to 527 residues) (unknown origin) expressed in Escherichia coli using DiFMUP as substrate incubated for 15 mins by microplate reader analysis
T1 sequence (Q06124 whole entry): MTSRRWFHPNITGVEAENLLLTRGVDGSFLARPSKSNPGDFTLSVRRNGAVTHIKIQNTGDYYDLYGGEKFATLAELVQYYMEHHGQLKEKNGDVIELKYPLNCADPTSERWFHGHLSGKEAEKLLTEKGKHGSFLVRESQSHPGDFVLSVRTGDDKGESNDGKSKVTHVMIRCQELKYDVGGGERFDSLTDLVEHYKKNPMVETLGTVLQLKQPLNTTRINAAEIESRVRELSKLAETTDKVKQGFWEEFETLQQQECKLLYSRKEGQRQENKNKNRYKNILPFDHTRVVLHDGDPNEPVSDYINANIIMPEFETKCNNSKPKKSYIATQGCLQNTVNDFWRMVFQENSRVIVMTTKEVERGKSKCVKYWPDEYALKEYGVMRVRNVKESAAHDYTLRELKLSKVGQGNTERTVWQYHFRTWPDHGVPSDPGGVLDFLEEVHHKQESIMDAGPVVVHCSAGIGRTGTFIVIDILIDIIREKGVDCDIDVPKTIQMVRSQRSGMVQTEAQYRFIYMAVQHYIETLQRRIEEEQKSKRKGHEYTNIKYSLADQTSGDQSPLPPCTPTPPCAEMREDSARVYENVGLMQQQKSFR

[2] = Metabolic stability in human liver microsome assessed as intrinsic clearance at […] preincubated for 5 mins followed by NADPH addition and measured after 20 mins by LC-MS analysis; assay type: ADME; details: liver microsomes, dose 2.5 µM, time 25 min, read-out: CLH
[3] = Metabolic stability in mouse liver microsome assessed as intrinsic clearance at […] preincubated for 5 mins followed by NADPH addition and measured after 20 mins by LC-MS analysis; assay type: ADME; details: liver microsomes, dose 2.5 µM, time 25 min, read-out: CLH
[4] = Metabolic stability in human hepatocyte assessed as intrinsic clearance incubated for 1 to 2 hrs by LC-MS analysis; assay type: ADME, cell-based; details: hepatocytes, time 1-2 hrs, read-out: CLH
[5] = Metabolic stability in mouse hepatocyte assessed as intrinsic clearance incubated for 1 to 2 hrs by LC-MS analysis; assay type: ADME, cell-based; details: hepatocytes, time 1-2 hrs, read-out: CLH
[6] = target: Mitogen-activated protein kinase; ERK1/ERK2 (Homo sapiens, UniProt P27361+P28482); assay: Inhibition of ERK1/2 phosphorylation at Thr202/Tyr204 residues in human KYSE520 cells incubated for 1 hrs by Western blot analysis; assay type: cell-based
[7] = Permeability of compound from apical to basolateral side in LLC-PK1 cells incubated for 2 hrs by LC-MS/MS analysis; assay type: ADME, cell-based, Sus scrofa; details: pig, read-out: permeability
[8] = Solubility of the compound in FaSSIF at 1 mg/ml incubated for 24 hrs by LC-MS/MS analysis; assay type: physicochemical

| Structure (SMILES) | pIC50 [1] | CLint scaled at […] [2] [mL/min/kg] | CLint scaled at […] [3] [mL/min/kg] | CLint scaled at 10000 µM [4] [mL/min/kg] | CLint scaled [5] [mL/min/kg] | IC50 [6] [nM] | Papp A→B at 2 h [7] [×10⁻⁶ cm/s] | solubility at 24 h [8] [µg/mL] |
| --- | --- | --- | --- | --- | --- | --- | --- | --- |
| COc1ccc2c(c1)[C@@H](N)C1(CCN(c3cnc4nc(Sc5ccnc(N)c5Cl)ccc4n3)CC1)C2 | 7.33 | 6 | 21 | 11 | 33 | 29 | – | – |
| CC1(N)CCN(c2ncc(Sc3cccc(Cl)c3Cl)n3nccc23)CC1 | 6.68 | – | – | – | – | 2785 | – | – |
| CC1(N)CCN(c2ccnc3c(Sc4cccc(Cl)c4Cl)cnn23)CC1 | 6.28 | – | – | – | – | > 20000 | – | – |
| CC1(N)CCN(c2cnc3nc(Sc4cccc(Cl)c4Cl)ccc3n2)CC1 | 7.33 | – | – | – | – | 1068 | – | – |
| Cc1ccc2c(c1)[C@@H](N)C1(CCN(c3cnc4nc(Sc5ccnc(N)c5Cl)ccc4n3)CC1)C2 | – | 6 | 25 | 10 | 33 | 17 | – | – |
| CNC1(C)CCN(c2cnc3nc(Sc4ccnc(N)c4Cl)ccc3n2)CC1 | – | 3 | 20 | 5 | 16 | 202 | 12 | 1000 (≈ 2400 µM) |
| COc1cnc2c(c1)[C@@H](N)C1(CCN(c3cnc4nc(Sc5ccnc(N)c5Cl)ccc4n3)CC1)C2 | – | 7 | 29 | 12 | 30 | 8 | 6 | – |
| CC1(N)CCN(c2ccc(Sc3cccc(Cl)c3Cl)n3nccc23)CC1 | 5.43 | – | – | – | – | > 20000 | – | – |
| CC1(N)CCN(c2cnc3nc(Sc4ccnc(N)c4Cl)ccc3n2)CC1 | – | 3 | 30 | 2 | 8 | 58 | 10 | – |
| COc1nccc(Sc2ccc3nc(N4CCC(C)(N)CC4)cnc3n2)c1Cl | 6.45 | 6 | 20 | 2 | 7 | 660 | 12 | – |
| CC1(N)CCN(c2cnc3c(cnn3-c3cccc(Cl)c3Cl)n2)CC1 | 5.71 | – | – | – | – | 1951 | – | – |
| CC1(N)CCN(c2cnc3nc(-c4cccc(Cl)c4Cl)ccc3n2)CC1 | – | 3 | 25 | 2 | 8 | 471 | – | – |
| Nc1nccc(Sc2ccc3nc(N4CCC5(CC4)Cc4cc(F)ccc4[C@H]5N)cnc3n2)c1Cl | – | 5 | 17 | 12 | 37 | 10 | 6 | – |
| CC1(N)CCN(c2cnc3nc(-c4cccc(F)c4Cl)ccc3n2)CC1 | 6.46 | – | – | – | – | 1184 | 19 | – |
| COc1cccc(Sc2ccc3nc(N4CCC(C)(N)CC4)cnc3n2)c1Cl | 6.98 | 9 | 51 | 9 | 45 | 786 | – | – |
| CC1(N)CCN(c2cnc3nc(-c4cccc5ccccc45)ccc3n2)CC1 | – | 3 | 22 | 2 | 8 | 510 | 13 | – |
